Results on 34 compounds are retold here after patent US8236792B2, “Substituted pyrrolidine amides as modulators of the histamine H3 receptor” (Janssen Pharmaceutica NV, priority 2008, dated 2012).

Assay [1] addresses T1, cloned human H3 receptors (Homo sapiens, UniProt Q9Y5N1).
T1 construct: expressed in transfected cells
Put plainly: H3 Receptor Binding (Human) Method 1. The conditions noted are these: receptor stably expressed in SK-N-MC cells, free base forms, average of results.

The next assay concerns the target human H3 receptor (Homo sapiens, UniProt Q9Y5N1). Put plainly: H3 Receptor Binding (Human) Method 2, [125I]-iodoproxyfan competitive radioligand binding. Further details: expressed in transfected cells. To be noted: read-out: Human H3 Ki.
Setting [2] is: Method 2, SK-N-MC cell membranes, [125I]-iodoproxyfan 1 nM, apparent Ki, free base or hydrochloride salt, average of results.

Molecules are shown by their SMILES. Like-named read-outs stand apart in the source and are kept apart here.

Sequence of human H3 receptor (Q9Y5N1 whole entry): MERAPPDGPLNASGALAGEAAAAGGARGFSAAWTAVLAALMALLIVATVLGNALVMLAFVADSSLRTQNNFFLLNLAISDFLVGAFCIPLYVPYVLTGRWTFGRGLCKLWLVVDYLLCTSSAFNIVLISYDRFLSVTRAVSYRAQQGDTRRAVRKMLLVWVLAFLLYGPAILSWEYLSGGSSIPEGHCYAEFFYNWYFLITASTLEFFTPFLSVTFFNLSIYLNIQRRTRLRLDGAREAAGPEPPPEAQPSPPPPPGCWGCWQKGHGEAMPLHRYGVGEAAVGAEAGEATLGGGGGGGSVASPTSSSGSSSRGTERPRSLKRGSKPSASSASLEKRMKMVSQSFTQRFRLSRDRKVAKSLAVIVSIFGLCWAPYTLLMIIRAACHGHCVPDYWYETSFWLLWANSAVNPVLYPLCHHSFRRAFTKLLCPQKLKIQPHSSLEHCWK
T1 sequence (Q9Y5N1 whole entry): as above

For `CC(C)(C)OC(=O)N1CC(Oc2cccc(F)c2)C[C@H]1C(=O)N1CCCN(C2CCC2)CC1` (mixture of isomers) [Example 41, (2S)-2-(4-Cyclobutyl-[1,4]diazepane-1-carbonyl)-4-(3-fluoro-phenoxy)-pyrrolidine-1-carboxylic acid tert-butyl ester], the Ki in assay [1] turned out to be 18 nM.

In assay [1], `CC(C)(C)OC(=O)N1C[C@H](O)C[C@H]1C(=O)N1CCCN(C2CCC2)CC1` [Example 1, (2S,4R)-2-(4-Cyclobutyl-[1,4]diazepane-1-carbonyl)-4-hydroxy-pyrrolidine-1-carboxylic acid tert-butyl Ester] yielded a Ki of 70 nM.

With `CC(C)(C)OC(=O)N1C[C@H](O)C[C@H]1C(=O)N1CCN(C2CCC2)CC1` [Example 2, (2S,4R)-2-(4-Cyclobutyl-piperazine-1-carbonyl)-4-hydroxy-pyrrolidine-1-carboxylic acid tert-butyl Ester], the Ki in assay [1] is over 10000 nM.

In assay [1], `CC(C)(C)OC(=O)N1C[C@@H](Oc2ccc(F)cc2)C[C@H]1C(=O)N1CCCN(C2CCC2)CC1` [Example 11, (2S,4S)-2-(4-Cyclobutyl-[1,4]diazepane-1-carbonyl)-4-(4-fluoro-phenoxy)-pyrrolidine-1-carboxylic acid tert-butyl ester] came in with a Ki of 37 nM.

`CS(=O)(=O)N1C[C@@H](Oc2ccc(F)cc2)C[C@@H]1C(=O)N1CCCN(C2CCC2)CC1` [Example 140, (2R,4S)-(4-Cyclobutyl-[1,4]diazepan-1-yl)-[4-(4-fluoro-phenoxy)-1-methanesulfonyl-pyrrolidin-2-yl]-methanone]: the Ki on human H3 receptor amounted to 1 nM.

For `O=C([C@@H]1C[C@H](Oc2ccc(F)cc2)CN1C1CC1)N1CCCN(C2CCC2)CC1` [Example 141, (2S,4S)-2-(4-Cyclobutyl-[1,4]diazepan-1-yl)-[1-cyclopropyl-4-(4-fluoro-phenoxy)-pyrrolidin-2-yl]-methanone], the Ki at human H3 receptor (setting [2]) was found to be 55 nM.

As to `O=C([C@H]1C[C@H](Oc2ccc(F)cc2)CN1C1CC1)N1CCCN(C2CCC2)CC1` [Example 142, (2R,4S)-1-Cyclopropyl-2-(4-cyclobutyl-[1,4]diazepane-1-carbonyl)-4-(4-fluoro-phenoxy)-pyrrolidine], the Ki at human H3 receptor (setting [2]) was 13 nM.

Regarding `CC(C)(C)OC(=O)N1CC[C@@H](Oc2cccc(F)c2)[C@H]1C(=O)N1CCCN(C2CCC2)CC1` [Example 143, (2S,3R)-2-(4-Cyclobutyl-[1,4]diazepane-1-carbonyl)-3-(3-fluoro-phenoxy)-pyrrolidine-1-carboxylic acid tert-butyl ester], on human H3 receptor, the Ki was found to be 845 nM.

`CC(C)(C)OC(=O)N1CC[C@@H](Oc2ccc(F)cc2)[C@H]1C(=O)N1CCCN(C2CCC2)CC1` [Example 144, (2S,3R)-2-(4-Cyclobutyl-[1,4]diazepane-1-carbonyl)-3-(4-fluoro-phenoxy)-pyrrolidine-1-carboxylic acid tert-butyl ester]: the Ki on human H3 receptor was found to be 957 nM.

As to `CC(C)(C)OC(=O)N1CC[C@@H](Oc2ccc(C#N)cc2)[C@H]1C(=O)N1CCCN(C2CCC2)CC1` [Example 145, (2S,3R)-3-(4-Cyano-phenoxy)-2-(4-cyclobutyl-[1,4]diazepane-1-carbonyl)-pyrrolidine-1-carboxylic acid tert-butyl ester], at human H3 receptor, the Ki worked out at 1100 nM.

For `CSc1ccc(O[C@@H]2CCN(C(=O)OC(C)(C)C)[C@@H]2C(=O)N2CCCN(C3CCC3)CC2)cc1` [Example 146, (2S,3R)-2-(4-Cyclobutyl-[1,4]diazepane-1-carbonyl)-3-(4-methylsulfanyl-phenoxy)-pyrrolidine-1-carboxylic acid tert-butyl ester], on human H3 receptor, the Ki worked out at 1470 nM.

Take `CC(C)(C)OC(=O)N1C[C@@H](OCc2cccc(F)c2)C[C@@H]1C(=O)N1CCCN(C2CCC2)CC1` [Example 147, (2R,4S)-2-(4-Cyclobutyl-[1,4]diazepane-1-carbonyl)-4-(3-fluoro-benzyloxy)-pyrrolidine-1-carboxylic acid tert-butyl ester]: on human H3 receptor, the Ki was determined as 8 nM.

For the compound `CC(C)(C)OC(=O)N1C[C@@H](OCc2ccc(F)cc2)C[C@@H]1C(=O)N1CCCN(C2CCC2)CC1` [Example 148, (2R,4S)-2-(4-Cyclobutyl-[1,4]diazepane-1-carbonyl)-4-(4-fluoro-benzyloxy)-pyrrolidine-1-carboxylic acid tert-butyl ester], the Ki at human H3 receptor was 6 nM.

In the case of `CC(C)(C)OC(=O)N1C[C@@H](OCc2ccc(C#N)cc2)C[C@@H]1C(=O)N1CCCN(C2CCC2)CC1` [Example 149, (2R,4S)-4-(4-Cyano-benzyloxy)-2-(4-cyclobutyl-[1,4]diazepane-1-carbonyl)-pyrrolidine-1-carboxylic acid tert-butyl ester], the Ki at human H3 receptor worked out at 13 nM.

In the case of `CC(=O)N1C[C@@H](Oc2cccc(F)c2)C[C@@H]1C(=O)N1CCCNCC1` [Example 156, (2R,4S)-4-[1-Acetyl-4-(3-fluoro-Phenoxy)-pyrrolidine-2-carbonyl]-[1,4]diazepane], the Ki on human H3 receptor is 1160 nM.

As to `CC(C)(C)OC(=O)N1CCC[C@]1(Cc1cccc(F)c1)C(=O)N1CCCN(C2CCC2)CC1` [Example 164, (2S)-2-(4-Cyclobutyl-[1,4]diazepane-1-carbonyl)-2-(3-fluoro-benzyl)-pyrrolidine-1-carboxylic acid tert-butyl ester], on human H3 receptor, the Ki was found to be 53 nM.

For `CC(C)(C)OC(=O)N1CCC[C@]1(Cc1ccc(F)cc1)C(=O)N1CCCN(C2CCC2)CC1` [Example 165, (2S)-2-(4-Cyclobutyl-[1,4]diazepane-1-carbonyl)-2-(4-fluoro-benzyl)-pyrrolidine-1-carboxylic acid tert-butyl ester], the Ki on human H3 receptor is 257 nM.

For `CC(C)(C)OC(=O)N1CCC[C@]1(Cc1ccc(C(F)(F)F)cc1)C(=O)N1CCCN(C2CCC2)CC1` [Example 166, (2S)-2-(4-Cyclobutyl-[1,4]diazepane-1-carbonyl)-2-(4-trifluoromethyl-benzyl)-pyrrolidine-1-carboxylic acid tert-butyl ester], the Ki on human H3 receptor came out at 60 nM.

As to `CC(C)(C)OC(=O)N1CCC[C@]1(Cc1ccccc1)C(=O)N1CCCN(C2CCC2)CC1` [Example 167, (2S)-2-Benzyl-2-(4-cyclobutyl-[1,4]diazepane-1-carbonyl)-pyrrolidine-1-carboxylic acid tert-butyl ester], the Ki at human H3 receptor was determined as 51 nM.

Regarding `O=C(N1CCCN(C2CCC2)CC1)[C@@]1(Cc2cccc(F)c2)CCCN1` [Example 168, (2S)-2-(4-Cyclobutyl-[1,4]diazepane-1-carbonyl)-2-(3-fluoro-benzyl)-pyrrolidine], the Ki at human H3 receptor (setting [2]) came to 44 nM.

As to `O=C(N1CCCN(C2CCC2)CC1)[C@@]1(Cc2ccc(F)cc2)CCCN1` [Example 169, (2S)-(4-Cyclobutyl-[1,4]diazepan-1-yl)-[2-(4-fluoro-benzyl)-pyrrolidin-2-yl]-methanone], the Ki on human H3 receptor came out at 27 nM.

As for `O=C(N1CCCN(C2CCC2)CC1)[C@@]1(Cc2ccc(C(F)(F)F)cc2)CCCN1` [Example 170, (2S)-(4-Cyclobutyl-[1,4]diazepan-1-yl)-[2-(4-trifluoromethyl-benzyl)-pyrrolidin-2-yl]-methanone], on human H3 receptor (setting [2]), the Ki was 201 nM.

In the case of `O=C(N1CCCN(C2CCC2)CC1)[C@@]1(Cc2ccccc2)CCCN1` [Example 171, (2S)-(2-Benzyl-pyrrolidin-2-yl)-(4-cyclobutyl-[1,4]diazepan-1-yl)-methanone], the Ki on human H3 receptor (setting [2]) is 11 nM.

For the compound `CC(C)(C)OC(=O)N1C[C@H](Cc2ccccc2)C[C@H]1C(=O)N1CCCN(C2CCC2)CC1` [Example 173, (2S,4R)-4-Benzyl-2-(4-cyclobutyl-[1,4]diazepane-1-carbonyl)-pyrrolidine-1-carboxylic acid tert-butyl ester], the Ki on human H3 receptor worked out at 39 nM.

Turning to `CC(C)(C)OC(=O)N1C[C@H](Cc2ccc(F)cc2)C[C@H]1C(=O)N1CCCN(C2CCC2)CC1` [Example 174, (2S,4R)-2-(4-Cyclobutyl-[1,4]diazepane-1-carbonyl)-4-(4-fluoro-benzyl)pyrrolidine-1-carboxylic acid tert-butyl ester], the Ki on human H3 receptor came out at 53 nM.

`CC(C)(C)OC(=O)N1C[C@H](Cc2cccc(F)c2)C[C@H]1C(=O)N1CCCN(C2CCC2)CC1` [Example 175, (2S,4R)-2-(4-Cyclobutyl-[1,4]diazepane-1-carbonyl)-4-(3-fluoro-benzyl)-pyrrolidine-1-carboxylic acid tert-butyl ester]: the Ki on human H3 receptor turned out to be 72 nM.

Regarding `CC(C)(C)OC(=O)N1C[C@H](Cc2ccsc2)C[C@H]1C(=O)N1CCCN(C2CCC2)CC1` [Example 176, (2S,4R)-2-(4-Cyclobutyl-[1,4]diazepane-1-carbonyl)-4-thiophen-3-ylmethyl-pyrrolidine-1-carboxylic acid tert-butyl ester], at human H3 receptor, the Ki turned out to be 20 nM.

Consider `O=C([C@@H]1C[C@@H](Cc2ccccc2)CN1)N1CCCN(C2CCC2)CC1` [Example 177, (2S,4R)-(4-Benzyl-pyrrolidin-2-yl)-(4-cyclobutyl-[1,4]diazepan-1-yl)-methanone], for which, on human H3 receptor, the Ki was determined as 263 nM.

Take `O=C([C@@H]1C[C@@H](Cc2ccc(F)cc2)CN1)N1CCCN(C2CCC2)CC1` [Example 178, (2S,4R)-(4-Cyclobutyl-[1,4]diazepan-1-yl)-[4-(4-fluoro-benzyl)-pyrrolidin-2-yl]-methanone]: the Ki on human H3 receptor turned out to be 299 nM.

For the compound `O=C([C@@H]1C[C@@H](Cc2cccc(F)c2)CN1)N1CCCN(C2CCC2)CC1` [Example 179, (2S,4R)-(4-Cyclobutyl-[1,4]diazepan-1-yl)-[4-(3-fluoro-benzyl)-pyrrolidin-2-yl]-methanone], the Ki on human H3 receptor amounted to 348 nM.

Take `O=C([C@@H]1C[C@@H](Cc2ccsc2)CN1)N1CCCN(C2CCC2)CC1` [Example 180, (2S,4R)-(4-Cyclobutyl-[1,4]diazepan-1-yl)-(4-thiophen-3-ylmethyl-pyrrolidin-2-yl)-methanone]: the Ki at human H3 receptor is 50 nM.

As for `CC(=O)N1C[C@H](Cc2ccc(F)cc2)C[C@H]1C(=O)N1CCCN(C2CCC2)CC1` [Example 181], the Ki at human H3 receptor was determined as 2110 nM.

With `CC(=O)N1C[C@H](Cc2cccc(F)c2)C[C@H]1C(=O)N1CCCN(C2CCC2)CC1` [Example 182], the Ki on human H3 receptor was determined as 1160 nM.

`CC(=O)N1C[C@H](Cc2ccsc2)C[C@H]1C(=O)N1CCCN(C2CCC2)CC1` [Example 183]: the Ki at human H3 receptor was 203 nM.
